We go through 23 compounds from PubChem BioAssay AID192 (DTP/NCI, 2004).

In this test the test system is BDF1 mice, B16 melanoma ip, median survival T/C. The test is described as follows: NCI In Vivo Anticancer Drug Screen. Data for tumor model B16 Melanoma (intraperitoneal) in B6D2F1 (BDF1) mice. The note with it: endpoint: median survival time, higher = longer survival. Summed up: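 Antitumor activity is assessed in mice bearing a transplanted tumor, with survival or tumor size compared against vehicle-dosed controls and expressed as T/C.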

The mark [1] stands for this setting: dose: 25.0 mg/kg/injection, schedule: Q01DX009 (ip), vehicle: saline with Tween-80.
The mark [2] stands for this setting: dose: 50.0 mg/kg/injection, schedule: Q01DX009 (ip), vehicle: saline with Tween-80.
Setting [3] is: dose: 200.0 mg/kg/injection, schedule: Q01DX009 (ip), vehicle: saline with Tween-80.
Where [4] appears, read: dose: 25.0 mg/kg/injection, schedule: Q01DX009 (ip), vehicle: Klucel (hydroxypropylcellulose) (HPC).
Where [5] appears, read: dose: 100.0 mg/kg/injection, schedule: Q04DX003 (ip), vehicle: saline with Tween-80.
Where [6] appears, read: dose: 400.0 mg/kg/injection, schedule: Q04DX003 (ip), vehicle: saline with Tween-80.
The mark [7] stands for this setting: dose: 12.5 mg/kg/injection, schedule: Q01DX009 (ip), vehicle: saline.
Setting [8] is: dose: 25.0 mg/kg/injection, schedule: Q01DX009 (ip), vehicle: saline.
Setting [9] is: dose: 12.5 mg/kg/injection, schedule: Q01DX009 (ip), vehicle: saline with Tween-80.
The mark [10] stands for this setting: dose: 100.0 mg/kg/injection, schedule: Q01DX009 (ip), vehicle: saline with Tween-80.
[11] abbreviates: dose: 50.0 mg/kg/injection, schedule: Q01DX009 (ip), vehicle: Klucel (hydroxypropylcellulose) (HPC).
Where [12] appears, read: dose: 100.0 mg/kg/injection, schedule: Q01DX009 (ip), vehicle: Klucel (hydroxypropylcellulose) (HPC).
[13] abbreviates: dose: 266.0 mg/kg/injection, schedule: Q04DX003 (ip), vehicle: saline with Tween-80.

Where “and” joins values, the source holds several entries; their conditions need not be identical. Identical values can stand only once. Inconclusive results and toxic doses are left out.

`Cc1cc2nc3[nH]c4ccccc4c3nc2cc1C`: the T/C under setting [1] is 97 % of control, the T/C under setting [2] was 97 % of control and the T/C under setting [3] was 86 % of control.

Turning to `COc1cc2c(cc1OC)C(C#N)C2` (stereo not drawn), the T/C (dose: 6.25 mg/kg/injection, schedule: Q01DX009 (ip), vehicle: Klucel (hydroxypropylcellulose) (HPC)) is 105 % of control; the T/C (dose: 12.5 mg/kg/injection, schedule: Q01DX009 (ip), vehicle: Klucel (hydroxypropylcellulose) (HPC)) is 97 % of control and 102 % of control; the T/C under setting [4] was 111 % of control.

For the compound `OCc1ccccc1NCc1ccccc1`, the T/C (dose: 100.0 mg/kg/injection, schedule: Q01DX009 (ip), vehicle: other) was 91 % of control and 109 % of control; the T/C (dose: 200.0 mg/kg/injection, schedule: Q01DX009 (ip), vehicle: other) was 100 % of control; the T/C (dose: 400.0 mg/kg/injection, schedule: Q01DX009 (ip), vehicle: other) is 95 % of control and 98 % of control.

As for `O=C(Nc1ccc2c(c1)Cc1cc(Br)ccc1-2)C(F)(F)F`, the T/C runs as follows: (dose: 25.0 mg/kg/injection, schedule: Q04DX003 (ip), vehicle: saline with Tween-80) 103 % of control; (dose: 50.0 mg/kg/injection, schedule: Q04DX003 (ip), vehicle: saline with Tween-80) 109 % of control; under setting [5], 95 % of control and 96 % of control; under setting [6], 86 % of control.

`CNC(=O)ON(C(C)=O)C(=O)NC`: the T/C runs as follows: under setting [7], 87 % of control; under setting [8], 88 % of control.

On to `CCC(C(C)N1CC(=O)NC(=O)C1)N1CC(=O)NC(=O)C1` (stereo not drawn), for which the T/C (dose: 0.06 mg/kg/injection, schedule: Q01DX009 (ip), vehicle: Klucel (hydroxypropylcellulose) (HPC)) was 107 % of control; the T/C (dose: 0.13 mg/kg/injection, schedule: Q01DX009 (ip), vehicle: Klucel (hydroxypropylcellulose) (HPC)) was 108 % of control; the T/C (dose: 0.25 mg/kg/injection, schedule: Q01DX009 (ip), vehicle: Klucel (hydroxypropylcellulose) (HPC)) is 109 % of control and 124 % of control; the T/C (dose: 0.25 mg/kg/injection, schedule: Q04DX003 (ip), vehicle: Klucel (hydroxypropylcellulose) (HPC)) was 105 % of control; the T/C (dose: 0.5 mg/kg/injection, schedule: Q01DX009 (ip), vehicle: Klucel (hydroxypropylcellulose) (HPC)) is 120 % of control; the T/C (dose: 0.5 mg/kg/injection, schedule: Q04DX003 (ip), vehicle: Klucel (hydroxypropylcellulose) (HPC)) was 114 % of control. Moreover, the T/C reads like this: (dose: 1.0 mg/kg/injection, schedule: Q04DX003 (ip), vehicle: Klucel (hydroxypropylcellulose) (HPC)) 115 % of control and 121 % of control; (dose: 8.0 mg/kg/injection, schedule: Q04DX003 (ip), vehicle: Klucel (hydroxypropylcellulose) (HPC)) 156 % of control.

As for `C[C@]12CCC(=O)C=C1CC[C@@H]1[C@@H]2C(=O)C[C@]2(C)C3=CC(=O)O[C@H]3C[C@@H]12`, the T/C is 100 % of control under setting [9] and 100 % of control under setting [1].

As for `O=C(CC(NC(=O)OCc1ccccc1)c1nn[nH]n1)OCc1ccccc1` (stereo not drawn), the T/C by setting is: (dose: 66.0 mg/kg/injection, schedule: Q01DX009 (ip), vehicle: saline with Tween-80) 99 % of control; under setting [10], 107 % of control; (dose: 150.0 mg/kg/injection, schedule: Q01DX009 (ip), vehicle: saline with Tween-80) 100 % of control.

`Oc1ccc(I)c2cccnc12`: the T/C reads like this: under setting [2], 97 % of control; under setting [10], 100 % of control; under setting [3], 97 % of control.

Take `CN(C)C(C#N)C(=O)c1ccccc1` (stereo not drawn): the T/C is, setting by setting: under setting [4], 104 % of control; under setting [11], 97 % of control; under setting [12], 97 % of control.

Consider `CNC(Cc1ccccc1)C1CCCCC1` (stereo not drawn), for which the T/C is 102 % of control (dose: 6.25 mg/kg/injection, schedule: Q04DX003 (ip), vehicle: Klucel (hydroxypropylcellulose) (HPC)); 100 % of control (dose: 12.5 mg/kg/injection, schedule: Q04DX003 (ip), vehicle: Klucel (hydroxypropylcellulose) (HPC)); 96 % of control (dose: 25.0 mg/kg/injection, schedule: Q04DX003 (ip), vehicle: Klucel (hydroxypropylcellulose) (HPC)).

`COc1cc([C@@H]2c3cc4c(cc3[C@H](O)[C@H]3COC(=O)[C@@H]23)OCO4)cc(OC)c1OC`: the T/C (dose: 6.0 mg/kg/injection, schedule: Q01DX009 (ip), vehicle: Klucel (hydroxypropylcellulose) (HPC)) was 105 % of control; the T/C (dose: 12.0 mg/kg/injection, schedule: Q01DX009 (ip), vehicle: Klucel (hydroxypropylcellulose) (HPC)) was 113 % of control; the T/C (dose: 24.0 mg/kg/injection, schedule: Q01DX009 (ip), vehicle: Klucel (hydroxypropylcellulose) (HPC)) is 113 % of control.

In the case of `COC(=O)NC1CC=CCC1I` (stereo not drawn), the T/C is, setting by setting: (dose: 12.5 mg/kg/injection, schedule: Q01DX009 (ip), vehicle: saline + alcohol) 109 % of control; (dose: 25.0 mg/kg/injection, schedule: Q01DX009 (ip), vehicle: saline + alcohol) 97 % of control; (dose: 50.0 mg/kg/injection, schedule: Q01DX009 (ip), vehicle: saline + alcohol) 88 % of control.

`NC(=O)CCCN1CCCC1=O`: the T/C is 106 % of control (dose: 100.0 mg/kg/injection, schedule: Q04DX003 (ip), vehicle: saline); 109 % of control (dose: 200.0 mg/kg/injection, schedule: Q04DX003 (ip), vehicle: saline); 106 % of control (dose: 400.0 mg/kg/injection, schedule: Q04DX003 (ip), vehicle: saline).

Turning to `Cc1ccc(NC(=O)Nc2cccc3ccccc23)c(C)c1`, the T/C was 89 % of control under setting [12] and 98 % of control (dose: 200.0 mg/kg/injection, schedule: Q01DX009 (ip), vehicle: Klucel (hydroxypropylcellulose) (HPC)).

For `CC(CN(C)C)CN1c2ccccc2Sc2ccccc21` (stereo not drawn), the T/C is, setting by setting: under setting [9], 104 % of control; under setting [1], 101 % of control.

Consider `COc1cc2c[n+](C)c3c4cc5c(cc4ccc3c2cc1OC)OCO5`, for which the T/C is 122 % of control (dose: 5.0 mg/kg/injection, schedule: Q01DX009 (ip), vehicle: water); 113 % of control under setting [9]; 115 % of control under setting [1]; 120 % of control (dose: 40.0 mg/kg/injection, schedule: Q01DX009 (ip), vehicle: water); 97 % of control under setting [2].

With `Clc1ccc2c(c1)C(Nc1cc3c4ccccc4ccc3c3ccccc13)c1cc(Cl)cc(Cl)c1-2` (stereo not drawn), the T/C (dose: 6.25 mg/kg/injection, schedule: Q01DX009 (ip), vehicle: saline with Tween-80) is 86 % of control.

Turning to `CCCCCCCCCCCCCCCCCCOC(=O)Cc1ccc(N(CCCl)CCCl)cc1`, the T/C (dose: 180.0 mg/kg/injection, schedule: Q04DX003 (ip), vehicle: saline with Tween-80) is 102 % of control and the T/C under setting [13] was 107 % of control.

Take `COc1ccc(N=C(c2ccccc2)c2ccccc2)cc1`: the T/C was 95 % of control under setting [5]; 86 % of control (dose: 200.0 mg/kg/injection, schedule: Q04DX003 (ip), vehicle: saline with Tween-80); 90 % of control under setting [6].

As for `Nc1nc(SCc2ccccc2Cl)c2ncn(C3OC(CO)C(O)C3O)c2n1` (stereo not drawn), the T/C is, setting by setting: under setting [11], 89 % of control; under setting [2], 88 % of control.

For the compound `C1OC1CO[C@@H]1CO[C@H]2[C@@H]1OC[C@H]2OCC1CO1` (stereo partly drawn), the T/C was 94 % of control under setting [7]; 94 % of control under setting [8]; 87 % of control under setting [2]; 115 % of control (dose: 50.0 mg/kg/injection, schedule: Q01DX009 (ip), vehicle: saline); 97 % of control under setting [10]; 104 % of control (dose: 100.0 mg/kg/injection, schedule: Q01DX009 (ip), vehicle: saline). For the same compound, the T/C reads like this: under setting [5], 116 % of control; (dose: 200.0 mg/kg/injection, schedule: Q01DX009 (ip), vehicle: saline) 326 % of control; under setting [13], 104 % of control; (dose: 400.0 mg/kg/injection, schedule: Q01DX009 (ip), vehicle: saline) 327 % of control; (dose: 600.0 mg/kg/injection, schedule: Q04DX003 (ip), vehicle: saline with Tween-80) 109 % of control.

Regarding `CC(=O)Oc1ccc(N2C(=O)C3C(C2=O)C2c4ccccc4C3C3CCCCN32)cc1` (stereo not drawn) (tested in a mixture with another compound), the T/C reads like this: (dose: 12.5 mg/kg/injection, schedule: Q01DX009 (ip), vehicle: water) 103 % of control; (dose: 25.0 mg/kg/injection, schedule: Q01DX009 (ip), vehicle: water) 97 % of control; (dose: 50.0 mg/kg/injection, schedule: Q01DX009 (ip), vehicle: water) 104 % of control; (dose: 100.0 mg/kg/injection, schedule: Q01DX009 (ip), vehicle: water) 97 % of control.
